Legend:
[1] = target: T1, Δ^5 -isomerase/3β-hydroxysteroid dehydrogenase (Rattus norvegicus, UniProt P22071); assay: Inhibition of the formation of progesterone in vitro (14C-pregnenolone, rat ovary microsomes); format: biochemical; conditions: 0.5 μg protein, 250 pmol 14C-pregnenolone, 0.4 mg NAD+, 30 minutes, 37° C., pH 7.4, read-out: IC50 (concentration of the test substance at which the enzyme activity amounts to 50% of the maximum value)
T1 construct: from tissue; host or cells: rat ovary microsomes
T1 sequence (P22071 1-373): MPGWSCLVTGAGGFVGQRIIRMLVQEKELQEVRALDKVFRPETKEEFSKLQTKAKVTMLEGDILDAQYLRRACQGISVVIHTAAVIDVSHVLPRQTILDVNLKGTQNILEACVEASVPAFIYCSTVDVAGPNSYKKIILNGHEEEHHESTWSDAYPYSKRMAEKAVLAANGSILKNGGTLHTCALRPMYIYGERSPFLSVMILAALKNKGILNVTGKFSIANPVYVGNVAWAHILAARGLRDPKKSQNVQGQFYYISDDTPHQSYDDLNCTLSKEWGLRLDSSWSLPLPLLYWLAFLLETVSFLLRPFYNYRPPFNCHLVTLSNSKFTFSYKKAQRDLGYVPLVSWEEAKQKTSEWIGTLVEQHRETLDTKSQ
Procedure: The activity of the D-homosteroids of formula I as inhibitors of Δ^5 -isomerase/3β-hydroxysteroid dehydrogenase was determined in the following experimental procedures:
Rat overies were homogenized in 0.05 M Na2 HPO4 buffer (pH 7.2) which contained 0.25 M sucrose and 0.05 M dithiothreitol. The microsomes obtained after centrifugation were suspended in 0.05 M Na2 HPO4 buffer (pH 7.4) which contained 0.001 M EDTA. This microsome preparation was assayed firstly for enzymatic activity by measuring the increase of the optical density at 340 nm by the reduction of NAD^+. Thereafter, aliquot portions (0.5 μg of protein) were incubated in 1.8 ml of buffer for 30 minutes at 37° C. with 250 pmol of ^14 C-pregnelonone, 0.4 mg of NAD^+ and different concentrations of the test substance dissolved in the minimum amounts of dimethyl sulphoxide. The reaction was interrupted by the addition of methylene chloride. After extraction and evaporation of the solvent, the radioactive metabolites were separated on silica gel-aluminium plates with benzene/acetone (85:15). The radioactivity was measured by means of a scintillation counter.

[2] = test system: pregnant female albino rats; assay: Interceptive activity in rats (pregnant rats, serum progesterone, living foetuses, resorptions, vacant implantation positions); format: in vivo, rat; conditions: for Serum progesterone 3 h later: orally or intramuscularly on 10th day of pregnancy; for Living foetuses, n (number of animals) / Living foetuses, x (mean of the observations) / Resorption, n (number of animals) / Resorption, x (mean of the observations) / Vacant implantation positions, n (number of animals) / Vacant implantation positions, x (mean of the observations): orally or intramuscularly on 10th day, killed on 15th day
From the text: Female albino rats were kept under controlled conditions, the synchronicity of the cycle being monitored by daily vaginal douching and subsequent cytological investigation. At proestrus the animals were brought together with male, fertile rats. The successful insemination was checked on the following morning and this day was denoted as the 1st day of the pregnancy. The pregnant animals then received the test substances as a suspension in a standard vehicle (0.5% carboxymethylcellulose, 0.4% TWEEN 80, 0.9% benzyl alcohol and 0.9% NaCl in water) orally or intramuscularly on the 10th day. The animals were killed on the 15th day. The blood was collected and the uteri were investigated for living foetuses, resorptions and vacant implantation positions. The serum hormone concentrations were determined radio-immunologically.

Row | Structure (SMILES) | IC50 [1] [nM] | Serum progesterone 3 h later ([2]; 7.5 mg/kg) [ng/mL] | Living foetuses, n (number of animals) ([2]; 7.5 mg/kg) | Resorption, n (number of animals) ([2]; 7.5 mg/kg) | Vacant implantation positions, n (number of animals) ([2]; 7.5 mg/kg) | Vacant implantation positions, x (mean of the observations) ([2]; 7.5 mg/kg) | Serum progesterone 3 h later ([2]; 15 mg/kg) [ng/mL] | Living foetuses, n (number of animals) ([2]; 15 mg/kg) | Resorption, n (number of animals) ([2]; 15 mg/kg) | Vacant implantation positions, n (number of animals) ([2]; 15 mg/kg) | Vacant implantation positions, x (mean of the observations) ([2]; 15 mg/kg) | Resorption, x (mean of the observations) ([2]; 7.5 mg/kg) | also measured
1 | CC1(C)C2=CC[C@@H]3[C@H](CC[C@@]4(C)[C@H]3CC=C[C@]4(C)O)[C@@]2(C)Cc2cn[nH]c21 [Example 6, 4,4,17a-trimethyl-2'H-D-homo-androsta-2,5,16-trieno[3,2-c]-pyrazol-17aβ-ol] | 0.4 |  |  |  |  |  |  |  |  |  |  |  | 
2 | CC1(C)C2=CC[C@@H]3[C@H](CC[C@@]4(C)[C@H]3CC=C[C@]4(C)O)[C@@]2(C)Cc2cnoc21 [Example 2, 4,4,17a-trimethyl-D-homo-androsta-2,5,16-trieno[2,3-d]isoxazol-17aβ-ol] |  | 39 | 0 | 0 | 6 | 13 | 35 | 0 | 0 | 6 | 12 |  | Serum progesterone 3 h later ([2]; 3.75 mg/kg): 87 ng/mL; Living foetuses, n (number of animals) ([2]; 3.75 mg/kg): 3; Living foetuses, x (mean of the observations) ([2]; 3.75 mg/kg): 12; Resorption, n (number of animals) ([2]; 3.75 mg/kg): 2; Resorption, x (mean of the observations) ([2]; 3.75 mg/kg): 9; Vacant implantation positions, n (number of animals) ([2]; 3.75 mg/kg): 2; Vacant implantation positions, x (mean of the observations) ([2]; 3.75 mg/kg): 13
3 | CCCCC1(O)C=CCC2C3CC=C4C(C)(C)c5[nH]ncc5CC4(C)C3CCC21C [Example 7, 17a-butyl-4,4-dimethyl-2'H-D-homo-androsta-2,5,16-trieno[3,2-c]pyrazol-17aβ-ol] | 6 |  |  |  |  |  |  |  |  |  |  |  | 
4 | CC1(C)C(=O)[C@H](C#N)C[C@@]2(C)C1=CC[C@@H]1[C@@H]2CC[C@@]2(C)[C@H]1CCC[C@]2(C)O [Example 14, 17aβ-hydroxy-4,4,17a-trimethyl-3-oxo-D-homo-androst-5-ene-2a-carbonitrile] |  | 20 | 1 | 3 | 4 | 12 | 20 | 1 | 3 | 4 | 13 | 12 | Living foetuses, x (mean of the observations) ([2]; 7.5 mg/kg): 3; Living foetuses, x (mean of the observations) ([2]; 15 mg/kg): 12; Resorption, x (mean of the observations) ([2]; 15 mg/kg): 14
5 | CC1(C)C(=O)[C@H](C#N)C[C@@]2(C)C1=CC[C@@H]1[C@@H]2CC[C@@]2(C)[C@H]1CC=C[C@@]21CCC(=O)O1 [Example 19, 2α-cyano-4,4-dimethyl-3-oxo-D-homo-17aα-pregna-5,16-diene-21,17a-carbolactone] |  |  |  |  |  |  | 9 | 0 | 0 | 8 | 13 |  | 
6 | CC(=O)O[C@H]1C=CC[C@H]2[C@@H]3CC=C4C(C)(C)c5nn(C(C)=O)cc5C[C@]4(C)[C@H]3CC[C@]12C [Example 12, 1'-acetyl-4,4-dimethyl-1'H-D-homo-androsta-5,16-dieno[3,2-c]pyrazol-17aβ-yl acetate] | 6 |  |  |  |  |  |  |  |  |  |  |  | 
7 | CC1(C)C(=O)[C@H](C#N)C[C@@]2(C)C1=CC[C@@H]1[C@@H]2CC[C@@]2(C)[C@H]1CC=C[C@]2(C)O [Example 17, 17aβ-hydroxy-4,4,17a-trimethyl-3-oxo-D-homo-androsta-5,16-diene-2α-carbonitrile] | 6.5 | 29 | 0 | 2 | 4 | 11 |  |  |  |  |  | 15 | Serum progesterone 3 h later ([2]; 3.75 mg/kg): 32 ng/mL; Living foetuses, n (number of animals) ([2]; 3.75 mg/kg): 2; Living foetuses, x (mean of the observations) ([2]; 3.75 mg/kg): 5; Resorption, n (number of animals) ([2]; 3.75 mg/kg): 5; Resorption, x (mean of the observations) ([2]; 3.75 mg/kg): 11; Vacant implantation positions, n (number of animals) ([2]; 3.75 mg/kg): 1; Vacant implantation positions, x (mean of the observations) ([2]; 3.75 mg/kg): 13
8 | C[C@]1(O)C=CC[C@H]2[C@@H]3CC[C@@]45O[C@]4(C)C(=O)[C@H](C#N)C[C@]5(C)[C@H]3CC[C@@]21C [Example 25, 4α, 5-epoxy-17aβ-hydroxy-4,17a-dimethyl-3-oxo-D-homo-5α-androst-16-ene-2α-carbonitrile] | 7 |  |  |  |  |  |  |  |  |  |  |  | 
9 | CC1(C)C(=O)C(=CNO)C[C@@]2(C)C1=CC[C@@H]1[C@@H]2CC[C@@]2(C)[C@H]1CC=C[C@]2(C)O [Example 21, 17aβ-hydroxy-2-[(hydroxyamino)methylene]-4,4,17a-trimethyl-D-homo-androsta-5,16-dien-3-one] |  | 24 | 3 | 6 | 2 | 10 | 17 | 1 | 0 | 6 | 13 | 10 | Living foetuses, x (mean of the observations) ([2]; 7.5 mg/kg): 6; Living foetuses, x (mean of the observations) ([2]; 15 mg/kg): 15
10 | CC1(C)C2=CC[C@H]3[C@@H]4CC=C[C@H](O)[C@@]4(C)CC[C@@H]3[C@@]2(C)Cc2cn[nH]c21 [Example 5, 4,4-dimethyl-2'H-D-homo-androsta-2,5,16-trieno[3,2-c]pyrazol-17aβ-ol] | 0.8 |  |  |  |  |  |  |  |  |  |  |  | 
11 | CC1(C)C2=CC[C@@H]3[C@H](CC[C@@]4(C)[C@H]3CCC[C@]4(C)O)[C@@]2(C)Cc2cnoc21 [Example 3, 4,4,17a-trimethyl-D-homo-androsta-2,5-dieno[2,3-d]-isoxazol-17aβ-ol] |  | 25 | 4 | 5 | 2 | 3 | 29 | 4 | 6 | 3 | 13 | 6 | Living foetuses, x (mean of the observations) ([2]; 7.5 mg/kg): 9; Living foetuses, x (mean of the observations) ([2]; 15 mg/kg): 9; Resorption, x (mean of the observations) ([2]; 15 mg/kg): 3
12 | CC(=O)OC1=C(C#N)C[C@]2(C)[C@H]3CC[C@]4(C)[C@@H](OC(C)=O)C=CC[C@H]4[C@@H]3CC[C@]23O[C@H]13 [Example 22, 3,17aβ-diacetoxy-4α,5α-epoxy-D-homo-5α-androsta-2,16-diene-2-carbonitrile] | 0.9 |  |  |  |  |  |  |  |  |  |  |  | 

Source: patent publication US4578475A, “Novel D-homosteroids” (Hoffman-La Roche Inc., priority 1983, dated 1986)
